Experimental data from paper PMC7176276, “Elucidating the possible mechanism of action of some pathogen box compounds against Leishmania donovani” (PLoS Neglected Tropical Diseases, 2020).

Assays:
[1] = system: Leishmania donovani promastigotes; test: Growth kinetics assay against promastigotes; format: cell-based; conditions: for incubation time after which decline in the parasite population was observed: promastigotes, 1μg/mL
Description: Promastigotes of L. donovani (2 x 10^4 cells) were incubated at 25° C in the presence of the test compounds (at 1μg/mL for each compound) in M199 containing 10% FBS (complete medium). Promastigotes treated with amphotericin B (0–50 μg/ml) served as positive control while untreated promastigotes in the medium alone served as negative control. Aliquots from treated and control parasites were diluted in 0.02 M PBS (pH 7.2) and the viable cells counted daily for 5 days using a Neubauer haemocytometer and a phase-contrast microscope under a 40x objective.

[2] = system: RAW 264.7 macrophage cell line; test: Cytotoxicity test against RAW macrophage cell line using MTT assay; format: cell-based, murine; conditions: RAW 264.7, 48 hours
Description: A murine macrophage cell line (RAW 264.7) was cultured in DMEM medium supplemented with penicillin G sodium (100 μg/mL), streptomycin sulfate (100 μg/mL) and 10% FBS. Macrophages at a density of 1 x 10^6 cells/mL were incubated at different concentrations (ranging from 0.39–100 μg/mL) of the compounds for 48 hours in a CO2 incubator (5% CO2, 37° C). Macrophages without any treatment were taken as negative control and amphotericin B was used as positive control. At the termination of the assay, MTT was added and incubated for an additional 3 hours. Acidified isopropanol was added to the set-up to solubilize the formazan crystals formed by the viable cells. The intensity of formazan formation was read on an Elisa plate reader (Varioskan Lux Elisa microplate reader, Thermo Fischer Scientific, USA) at 570 nm. The 50% cytotoxic concentrations (CC50) of the compounds were determined by analysis of dose-response curves. Selectivity index or therapeutic index was calculated as a ratio of CC50 RAW 264.7/IC50 L. donovani promastigotes or amastigotes.

[3] = system: Leishmania donovani promastigotes; test: In vitro antileishmanial activity assay, promastigotes (MTT); format: cell-based; conditions: for Therapeutic Index (TC50/IC50) promastigotes: TC50 RAW 264.7 / IC50 promastigotes
human red blood cells = test: Haemolysis assay against the human red blood cells; format: cell-based; conditions: 2% haematocrit, 3 hours
Description: The haemolytic effect of the compounds were tested against the human red blood cells at a density of 2% haematocrit. The method described by Kazi et al was used with slight modification. In this study, human red blood cells were used, the respective test compounds were incubated for 3 hours and 1% triton X100 served as the positive control. At the end of the assay the supernatant was read on a microtiter plate reader (Varioskan Lux Elisa microplate reader, Thermo Fischer Scientific, USA) at 415 nm. The 50% haemolytic concentration (HC50) of the compounds were determined by analysis of dose-response curves.

[4] = system: Leishmania donovani promastigotes; test: Growth reversibility assay (cytocidal/cytostatic) against promastigotes; format: cell-based; conditions: for cytocidal or cytostatic effect: growth reversibility profile after drug withdrawal; for growth reversal / reversibility of growth inhibition: promastigotes washed after 5 days of treatment; for growth reversal: regrown 4 days in fresh medium; for reversibility of growth inhibition: regrown 4 days
Description: However, to confirm the cytocidal or cytostatic effect of the test compounds, the treated and untreated parasites after 5 days of incubation were washed twice with fresh M199 and then resuspended in complete M199 media and allowed to grow further at 25° C; the viable promastigotes were enumerated microscopically after 4 days.

[5] = system: Leishmania donovani promastigotes; test: Morphological and mitochondrion integrity analysis by fluorescence microscopy (DAPI, MitoTracker); format: cell-based; conditions: 1μg/mL; for parasite cells with degeneration/disintegration of DNA (nucleus, kinetoplast) and mitochondrion: 72 hours
Description: Leishmania donovani promastigotes (2 x 10^4 cells) were treated with the test compounds at 1μg/mL (point concentration). They were then incubated for 24 hours and 72 hours in order to study their morphological changes and to see the changes in their mitochondrial integrity using DAPI and MitoTracker red dye respectively. The assay was performed using the methods described by Amisigo et al with slight modifications. Here the Mitotracker red dye was added to the pelleted promastigote cells at a concentration of 100 nM, resuspended in 1 mL of FBS-free M199 media with 1% BSA (Bovine Serum Albumin) and incubated for 30 minutes.

[6] = system: Leishmania donovani amastigotes; test: In vitro antileishmanial activity assay, macrophage-amastigotes model (MTT); format: cell-based; conditions: TC50 RAW 264.7 / IC50 amastigotes
Description: Leishmania donovani (MHOM/SD/62/1S strain) was a kind gift from Dr. Yamthe Lauve (Bei Resources NIAID, NIH). The promastigotes were cultured in M199 medium supplemented with 10% heat-inactivated fetal bovine serum (FBS), penicillin G sodium (100 μg/mL) and streptomycin sulfate (100 μg/mL) at 25° C and subcultured every 72 hours in the same medium at a mean density of 1 x 10^5 cells/mL [9]. The murine macrophage cell line RAW 264.7 (RIKEN BioResource Centre Cell Bank, Japan) were kindly provided by Professor Regina Appiah-Opong of the Clinical Pathology Department, Noguchi Memorial Institute for Medical Research, Ghana. RAW 264.7 were grown at 37° C in DMEM medium (pH 7.4) supplemented with 10% heat-inactivated FBS for 48–72 hours in 5% CO2 and subcultured in fresh DMEM medium at a mean density of 1 x 10^5 cells/mL.
Amphotericin B was used as a reference antileishmanial drug (positive control). RAW 264.7 macrophage cells were infected with promastigotes at a density of 1:10 ratio for 12 hours, after which the non-phagocytosed promastigotes were discarded (by aspirating them alongside the media) and the amastigote cells within the macrophages were treated with the compounds (in fresh complete media) to test their growth inhibitory activity using the method described previously. Parasite viability was assessed using the 3-(4,5-Dimethylthiazol-2-yl)-2,5-diphenyltetrazolium bromide (MTT) method in which the rate of formazan crystal formation was used as an index of cell viability as described by Mosmann. Fluorescence was measured with a Varioskan Lux Elisa microplate reader (Thermo Fischer Scientific, USA) at a wavelength of 570 nm. The fluorescence counts were plotted against the drug concentrations and the 50% inhibitory concentration (IC50) was determined by analysis of the dose-response curves using excel.

[7] = system: Leishmania donovani promastigotes; test: Cell cycle progression analysis by flow cytometry; format: cell-based; conditions: 2x IC50, 24 hours; for change in the number of cells at the G2/M phase: versus untreated
Description: Guava Cell Cycle Reagent (catalog No. 4500–0220) was used to stain the cells and the number of cells in G0/G1, S and G2/M phases were determined. Briefly, treated and untreated cells were pelleted and fixed in 70% ice-cold ethanol for an hour at -20°C, the suspended cells were then pelleted by centrifugation at 1500 rpm for 10 minutes. The supernatants were discarded, and the pelleted cells were washed twice with 1X PBS to ensure total removal of the ethanol. To a 200 μL of the cell pellets, a 200 μL of the Gauva Cell Cycle Reagent was added and incubated at room temperature (25°C) for 30 minutes in the dark. Cell distribution at the distinct cell cycle phases were measured using flow cytometer (BD LSR Fortessa X-20 analyzer BD Biosciences San Jose, CA 95131 USA). Data generated were analyzed using the FlowJo V10 software.

L. infantum = system: L. infantum; parameters: method as in PMID 25690568; conditions: earlier report ref 18; cited from earlier work
[8] = system: Leishmania donovani promastigotes; test: Apoptotic and necrotic potentials, Annexin V-FITC/PI flow cytometry; format: cell-based; conditions: 2x IC50, 24 hours; far less than in the untreated cells
Description: Briefly, treated promastigote cells were washed twice with cold 1x PBS and then resuspended in 1x binding buffer at a cell density of 1 x 10^6 cells/mL. To a 100 μL of the suspended cells, 5 μL of Annexin V-FITC and 5 μL of Propidium Iodide (PI) were added. The mixture was gently vortexed and allowed to incubate for 15 minutes at room temperature (25°C) in the dark. To the set-up, 400 μL of 1x binding buffer was added and the assay was read by flow cytometry (BD LSR Fortessa X-20 analyzer BD Biosciences, San Jose, CA 95131 USA) and the results analyzed using FlowJo version 10 software.

[9] = system: Leishmania donovani amastigote; parameters: method as in PMID 25690568; conditions: earlier report ref 18; cited from earlier work
L. major = system: L. major; parameters: method as in PMID 25690568; conditions: earlier report ref 18; cited from earlier work
[10] = system: Leishmania donovani promastigote; parameters: method as in PMID 25690568; conditions: earlier report ref 18; cited from earlier work

SMILES	TC50(μM)±SD RAW [2] [µM]	Therapeutic Index (TC50/IC50) promastigotes [3]	HC50 (50% haemolytic concentration) (human red blood cells) [µg/mL]	incubation time after which decline in the parasite population was observed [1] [h]	cytocidal or cytostatic effect [4]	growth reversal [4] [%]	parasite cells with degeneration/disintegration of DNA (nucleus, kinetoplast) and mitochondrion [5]	Therapeutic Index (TC50/IC50) amastigotes [6]	reversibility of growth inhibition [4]	parasite cells showing no obvious DNA and mitochondrion abnormality ([5]; 24 hours)	cells at the S phase [7] [%]	change in the number of cells at the G2/M phase [7]	apoptosis and necrosis of promastigotes [8]	further results
C[C@@H]1[C@H](O)[C@@H](C)/C=C/C=C/C=C/C=C/C=C/C=C/C=C/[C@H](O[C@@H]2O[C@H](C)[C@@H](O)[C@H](N)[C@@H]2O)C[C@@H]2O[C@](O)(C[C@@H](O)C[C@@H](O)[C@H](O)CC[C@@H](O)C[C@@H](O)CC(=O)O[C@H]1C)C[C@H](O)[C@H]2C(=O)O [Amphotericin B, amphotericin B, reference compound]	15.75 ± 0.03	3.0	–	–	–	–	–	–	–	–	–	–	–	effect on growth of promastigotes (growth kinetics) ([1]; viable cells counted daily for 5 days, compared with untreated control): no viable cells observed after 24 hours; IC50 ([3]; Leishmania donovani, 96 h, promastigotes, 4 days at 25° C, MTT, mean ±SD of three experiments): 5.3 ± 0.03 µM
CNC(=O)C1Cc2ccccc2N1C(=O)Cc1ccc(F)cc1 (centres unmarked) [MMV188296]	–	914	>100	48	cytostatic	56.5	more than 90%	237	–	–	–	–	–	parasite population with loss in mitochondrion integrity ([5]; 24 hours): 40%
CC(C)(C)OC(=O)N1CCN(c2[nH]nnc2-c2ccc(Oc3ccccc3)cc2)CC1 [MMV676057]	–	432	>100	48	cytocidal	–	about 85%	16	not reversible	About 70%	23	no significant change	slight apoptosis and necrosis	cells at the G0-G1 phase ([7]; untreated 30%): 23%; IC50 (L. infantum): 10.2 µM; IC50 [9]: > 10 µM; IC50 (L. major): 13 µM; IC50 [10]: 1300 nM
Cc1nn2c(=O)c3c([nH]c2c1-c1ccc(Cl)cc1)CCCC3 [MMV688776]	50 ± 0.02	19	>100	24	cytostatic	57.9	About 70%	1	–	About 70%	–	–	–	–
CCc1nn(C)c(C(=O)NCc2ccc(Oc3ccc(C)cc3)cc2)c1Cl [MMV688934]	–	416	>100	24	cytostatic	32.3	more than 90%	453	–	–	–	–	–	promastigotes showing enlargement of the nucleus and kinetoplast with the mitochondria losing its normal shape ([5]; 24 hours): 70%
CC(C)(C)C(O)C(Oc1ccc(-c2ccccc2)cc1)n1cncn1 (centres unmarked) [MMV688942]	–	43	>100	48	cytocidal	–	85%	16	not reversible	–	28	no significant change	slight apoptosis and necrosis	parasites showing loss of kinetoplast ([5]; 24 hours): about 30%
